Patent US20230414762A1, “PROSTATE-SPECIFIC MEMBRANE ANTIGEN (PSMA)-TARGETED PRODRUG FOR SELECTIVE KILLING OF CELLS […]” (The Johns Hopkins University, priority 2020, published 2023)
Where “and” joins values, the source holds several entries; their conditions need not be identical. Identical values can stand only once. Entries after “also recorded” stand apart in the source; their conditions may differ. Starred links: 1 amine or outer side, 2 acyl side, 3 side chain; linkers in the order of their positions; H or OH if unused. Non-standard residues stand in square brackets, D forms with d. Residues, ends and D or L forms follow the SMILES beside them. *: point of attachment. X1 = O=C(O)CC[C@H](NC(=O)N[C@@H](CCCCNC(=O)CCCCCCC(=O)*)C(=O)O)C(=O)O; Dolaproine = CO[C@@H]([C@@H]1CCCN1)[C@@H](C)C(=O)O; Dil = CC[C@H](C)[C@H](NC)[C@@H](CC(=O)O)OC; PABC = O=C(OCc1ccc(N[*:1])cc1)[*:2]; X2 = C[C@@H](N*)[C@@H](O)c1ccccc1; Cit = NC(=O)NCCC[C@H](N)C(=O)O; NMeV = CN[C@H](C(=O)O)C(C)C

Key:
PSMA− PC3 flu tumors = assay: Subcutaneous xenograft efficacy, PSMA- PC3 flu tumors; assay type: in vivo, NSG mice
recombinant cathepsin B = target: T1, recombinant cathepsin B (Homo sapiens, UniProt P07858); assay: Release of MMAE from prodrug by recombinant cathepsin B; assay type: biochemical; details: within 3 h of incubation with recombinant cathepsin B
T1 construct: purchased MilliporeSigma C8571
Protocol: Release of MMAE from prodrugs by a recombinant cathepsin B was analyzed using a modified method from previously published work. Dubowchik et al., 2002. Prodrug stock solutions (8 μL, 10 mM) were added to the 2 mL cathepsin B (MilliporeSigma, Cat #C8571, Burlington, MA, USA) containing buffer (25 mM acetate, 1 mM EDTA, pH 5, pre-warmed at 37° C.) at the final concentration of 30 nM (cathepsin B) and 40 μM (prodrug). Aliquots (200 μL) were periodically removed and enzymatic activity was stopped by the addition of thioprotease inhibitor E-64 (30 nM in the final solution, MilliporeSigma, Cat #E3132). The samples were centrifuged and the supernatants were analyzed by HPLC (Waters 600 E coupled with Varian prostar detector, Milford, MA, USA). Samples were prepared at 0, 10, 20, 30, 60, 90, and 120 min. Experiments were performed in triplicate.

PSMA+PC3 PIP tumors = assay: Subcutaneous xenograft efficacy, PSMA+ PC3 PIP tumors; assay type: in vivo, NSG mice; details: for median survival time: 4-fold tumor volume scored as death
[1] = Urinalyses from subcutaneous xenograft model (urine reagent strips); details: for urine protein / urine specific gravity: individual mice
PSMA+PC3/ML/PSMA cells = assay: Experimental metastatic model of PSMA-expressing PC
Protocol: A PSMA-expressing experimental metastatic model of human PC was used to evaluate efficacy of SBPD-1 on established metastatic tumors. […] PSMA+PC3/ML/PSMA cells were administered to NSG mice intravenously (IV) and tumors were allowed to establish for four weeks. PC3/ML/PSMA cells express firefly luciferase as an imaging reporter to allow tumor development to be monitored via weekly bioluminescence imaging (BLI).
For the metastatic model, NSG mice were injected with 0.75 million PC3/ML/PSMA cells via the tail vein. […] BLI was performed weekly using the IVIS Spectrum in vivo imaging system (Perkin Elmer, Waltham, MA).

[2] = Complete blood count in healthy mice; assay type: in vivo; details: C57BL/6 mice, 0.16 mg/kg
Protocol: (§1) Male C57BL/6 mice were purchased from Jackson Laboratory. Ten-week-old mice were injected with the indicated doses of MMAE (formulated in 5% DMSO), SBPD-1 (formulated in saline) or 5% DMSO intraperitoneally (daily for 30 days, n=5). Animals were monitored daily for weight changes and other abnormalities for 80 days. Animals were euthanized in a CO2 chamber at day 80, and blood, lung, liver, kidney, salivary gland, and lacrimal gland were collected for complete blood counts, blood chemistry, and histopathological analyses. Complete blood counts including white blood cells (WBC), red blood cells (RBC), hemoglobin (HGB), hematocrit (HCT), mean corpuscular volume (MCV), mean corpuscular hemoglobin (MCH), mean corpuscular hemoglobin concentration (MCHC), and platelet (PLT) were measured using scil Vet ABC™ Hematology Analyzer (scil animal care company, Gurnee, IL). Blood chemistry parameters including blood urea nitrogen (BUN), glucose (GLU), Alkaline Phosphatase (ALP), total protein (T-Pro), Alanine aminotransferase (ALT) and Creatinine (Cre) were measured with Spotchem EZ chemistry analyzer (Arkray USA, Edina, MN). Hematoxylin and eosin slides were generated for five organs and examined by certified veterinary pathologist.

[3] = In vivo toxicity in healthy mice (weight, survival, histopathology); set-up: species or system C57BL/6 mice
Protocol: (§2) The potential toxicity of SBPD-1 was evaluated in immunocompetent animals. MMAE (80 μg/kg), SBPD-1 (160 μg/kg), and 5% DMSO were administered to healthy C57BL/6 mice (n=5). Animals were monitored for 80 days after initiation of administration. […] Lung, liver, kidneys, salivary and lacrimal glands were removed from all tested animals at Day 80 after initiation of SBPD-1 treatment. […] Peripheral blood also was obtained from mice injected with vehicle, SBPD-1, and healthy untreated animals, and prepared serum for chemistry studies (n=5).
as §1

[4] = Blood chemistry in healthy mice; assay type: in vivo; details: C57BL/6 mice
Protocol: as §2, §1

[5] = Serum stability in murine serum (HPLC); assay type: in vitro ADME, mouse
Protocol: Serum stability of prodrugs was analyzed using a modified method from previously published work. Chu et al., 2012. Prodrug stock solution (8 μL, 10 mM) was incubated with 100% mouse serum (final concentration of the serum was 80% after the mixing with prodrug solution) at 37° C. Aliquots (50 μL) were periodically removed at 2, 4, 8, 24, and 48 h, and diluted with cold ice CH3OH (100 μL) to precipitate proteins. The samples were centrifuged, and the supernatants were analyzed by HPLC. Stability was calculated based on the peak area of the prodrug at each time point. Experiments were performed in triplicate.

[6] = Serum stability in human serum; assay type: in vitro ADME
Protocol: Prior to in vivo potency, the stability of SBPD-1 and SBPD-2 in murine serum was evaluated. While 90% of SBPD-2 remained intact for 48 h in murine serum (FIG. 3a), SBPD-1 was metabolized more quickly in murine serum (FIG. 3a). […] SBPD-1, however, was stable in human serum (FIG. 3a). It has been reported that the valine-citrulline linker is stable in human and monkey serum, but that it can be hydrolyzed in mouse plasma via extracellular carboxylesterase 1c. Dorywalska et al., 2016; Anami et al., 2018. Based on those stability results, small, fractionated doses were applied for the murine efficacy study to avoid systemic toxicity that could affect the overall survival of the test animals.

## CC[C@H](C)[C@@H]([C@@H](CC(=O)N1CCC[C@H]1[C@H](OC)[C@@H](C)C(=O)N[C@H](C)[C@@H](O)c1ccccc1)OC)N(C)C(=O)[C@@H](NC(=O)[C@H](C(C)C)N(C)C(=O)OCc1ccc(NC(=O)[C@H](CCCNC(N)=O)NC(=O)[C@@H](NC(=O)CCCCCCC(=O)NCCCC[C@H](NC(=O)N[C@@H](CCC(=O)O)C(=O)O)C(=O)O)C(C)C)cc1)C(C)C [SBPD-1, (6S,9S,24S,28S)-1-Amino-6-((4-((5S,8S,11S,12R)-11-((S)-sec-butyl)-12-(2-((S)-2-((1R,2R)-3-(((1S,2R)-1-hydroxy-1-phenylpropan-2-yl)amino)-1-methoxy-2-methyl-3-oxopropyl)pyrrolidin-1-yl)-2-oxoethyl)-5,8-diisopropyl-4,10-dimethyl-3,6,9-trioxo-2,13-dioxa-4,7,10-triazatetradecyl)phenyl)carbamoyl)-9-isopropyl-1,8,11,18,26-pentaoxo-2,7,10,19,25,27-hexaazatriacontane-24,28,30-tricarboxylic acid] (X1-V[Cit][PABC][NMeV]V[Dil][Dolaproine]-X2)
PSMA− PC3 flu tumors; 20 μg/kg daily IP for 30 days
  median survival time: 15 days
PSMA− PC3 flu tumors; 40 μg/kg daily IP for 30 days
  median survival time: 15 days
PSMA− PC3 flu tumors; 80 μg/kg daily IP for 30 days
  median survival time: 20 days
Recombinant cathepsin B
  MMAE released: 80%
PSMA+PC3 PIP tumors; 20 μg/kg daily IP for 30 days
  median survival time: 17 days
PSMA+PC3 PIP tumors; 40 μg/kg
  time until previously undetectable tumors could be re-measured: Approximately one week
PSMA+PC3 PIP tumors; 40 μg/kg daily IP for 30 days
  median survival time: 54 days
PSMA+PC3 PIP tumors; 80 μg/kg
  time until re-appearance of tumors: Two weeks
PSMA+PC3 PIP tumors; 80 μg/kg daily IP for 30 days
  median survival time: 69 days
PSMA+PC3 PIP tumors; doses of 40 and 80 μg/kg
  tumors at completion of treatment: undetectable
[1]; Day 9, PC3/PIP, 0.02 mg/kg
  urine protein: 30
  urine specific gravity: 1.025 (3×) and 1.02 (2×)
[1]; Day 9, PC3/PIP, 0.04 mg/kg
  urine protein: 30 (3×) and trace (2×)
  urine specific gravity: 1.025
[1]; Day 9, PC3/PIP, 0.08 mg/kg
  urine protein: trace and 30 (4×)
  urine specific gravity: 1.025
[1]; Day 9, PC3/flu, 0.02 mg/kg
  urine protein: 30
  urine specific gravity: 1.025 (4×) and 1.02
[1]; Day 9, PC3/flu, 0.04 mg/kg
  urine protein: 30
  urine specific gravity: 1.025
[1]; Day 9, PC3/flu, 0.08 mg/kg
  urine protein: 300 (2×) and 30 (2×) and 100
  urine specific gravity: 1.025
[1]; Day 20, PC3/PIP, 0.02 mg/kg
  urine protein: 30
  urine specific gravity: 1.025
[1]; Day 20, PC3/PIP, 0.04 mg/kg
  urine protein: 30
  urine specific gravity: 1.025
[1]; Day 20, PC3/PIP, 0.08 mg/kg
  urine protein: 30 (3×) and 100 (2×)
  urine specific gravity: 1.025
[1]; Day 20, PC3/flu, 0.02 mg/kg
  urine protein: 30
  urine specific gravity: 1.025 (3×) and 1.01 and 1.03
[1]; Day 20, PC3/flu, 0.04 mg/kg
  urine protein: 30
  urine specific gravity: 1.025 (2×) and 1.03 (2×)
[1]; Day 20, PC3/flu, 0.08 mg/kg
  urine protein: 300 (2×) and 30 (3×)
  urine specific gravity: 1.025
[1]; all test animals, Days 9 and 20, any dose tested
  urine protein level and specific gravity (acute renal toxicity): normal
PSMA+PC3/ML/PSMA cells; 40 μg/kg daily IP for 30 days
  median survival: 47 days
PSMA+PC3/ML/PSMA cells; 80 μg/kg daily IP for 30 days
  median survival: 56 days
PSMA+PC3/ML/PSMA cells; 160 μg/kg daily IP for 30 days
  median survival: 58 days
[2]
  complete blood counts, abnormalities: no abnormalities except for lower white blood cell count
[2]; individual mice
  HCT: 36% and 36.6% and 32.2% and 35.6% and 35.8%
  HGB: 13.4 g/dl (2×) and 13.8 g/dl and 12.4 g/dl and 14 g/dl
  MCH: 33.8 pg (3×) and 35 pg and 34.8 pg
  MCHC: 75.8 g/dl (3×) and 76.4 g/dl and 78.2 g/dl
  MCV: 90 μm^3 (4×) and 92 μm^3
  PLT: 1280 10^3/mm^3 (2×) and 1068 10^3/mm^3 and 1132 10^3/mm^3 and 1262 10^3/mm^3
  RBC: 8.08 10^6/mm^3 and 8.16 10^6/mm^3 and 7.02 10^6/mm^3 and 7.98 10^6/mm^3 and 8.02 10^6/mm^3
  WBC: 1.6 10^3/mm^3 (2×) and 1.8 10^3/mm^3 and 1.4 10^3/mm^3 and 2 10^3/mm^3
[3]; Day 80 after initiation of treatment, 160 μg/kg
  histopathological examination of lung, liver, kidneys, salivary and lacrimal glands: no tissue damage
[3]; healthy C57BL/6 mice, 160 μg/kg IP daily for 30 days, monitored 80 days
  signs of toxicity / weight: did not show any signs of toxicity; also recorded: did not induce toxicity
[4]; 160 μg/kg
  BUN, creatinine, glucose, ALP, T-Pro, ALT compared with untreated mice: did not show differences
[4]; 0.16 mg/kg, individual mice
  ALP: 94 IU/L (2×) and 108 IU/L and 96 IU/L and 85 IU/L
  ALT: 21 IU/L and 31 IU/L and 22 IU/L and 14 IU/L and 28 IU/L
  BUN: 28 mg/dl (2×) and 37 mg/dl (2×) and 27 mg/dl
  Cre: 1 mg/dl and 1.2 mg/dl and 1.1 mg/dl (2×) and 0.8 mg/dl
  GLU: 188 mg/dL and 248 mg/dL and 285 mg/dL and 219 mg/dL and 189 mg/dL
  T-Pro: 6.1 g/dl and 6.2 g/dl and 5.9 g/dl (2×) and 6 g/dl
[5]; 8 h of incubation
  intact in serum: more than 80%
[5]; 24 h
  fraction representing parent compound: less than half
[5]; by 48 h of incubation
  degradation of prodrug: the majority of the prodrug was fully degraded
[6]
  stability in human serum: stable

## CC[C@H](C)[C@@H](C(CC(=O)N1CCC[C@H]1[C@H](OC)[C@@H](C)C(=O)N[C@H](C)[C@@H](O)c1ccccc1)OC)N(C)C(=O)[C@@H](NC(=O)[C@H](C(C)C)N(C)C(=O)CC[C@H](NC(=O)CCCCCCC(=O)NCCCC[C@H](NC(=O)N[C@@H](CCC(=O)O)C(=O)O)C(=O)O)C(=O)O)C(C)C (stereo partly drawn) [SBPD-2, (4S,7S,10S,15S,30S,34S)-4-((S)-Sec-butyl)-3-(2-((S)-2-((1R,2R)-3-(((1S,2R)-1-hydroxy-1-phenylpropan-2-yl)amino)-1-methoxy-2-methyl-3-oxopropyl)pyrrolidin-1-yl)-2-oxoethyl)-7,10-diisopropyl-5,11-dimethyl-6,9,12,17,24,32-hexaoxo-2-oxa-5,8,11,16,25,31,33-heptaazahexatriacontane-15,30,34,36-tetracarboxylic acid]
[5]; 48 h
  remained intact: 90%
